In patent US8975275B2, “Use of chemotherapeutic agents” (priority 1999, dated 2015):
Counter-ions that a name gives are not always drawn.

Assays:
Assay type in all cases: in vivo, human
[1] = system: pulpitis due to carious diseases; experiment: Topical treatment of pulpitis due to carious diseases (patient cases)
From the text: This is of great importance because, for example in the case of caries profunda, it is always necessary to decide whether softened residual dentin can be left over the pulp. By virtue of complete elimination of the microbes present, there is now a novel method of treatment wherein a thin softened dentin covering can be left if the compounds of formula (I) or formula (II) are used. This method of treatment makes it possible to free infected dentin layers of microbes and to stop pulp infections. This means that pain reactions are eliminated and pulp infections are to a certain extent cured. The pulp remains vital. The topical application of the compounds of formula (I) or formula (II) followed the removal of the carious dentin. The compounds of formula (I) or formula (II) were applied for example in aqueous solution, in a form of gelatinous consistency or on an inert carrier, for example by means of a cotton wool plug. The overlying cavity was occluded with a cement to seal the margins. The cotton wool plug was left in the cavity for three to six days. The compounds of formula (I) or formula (II) can be used in concentrations of 0.005 mg/ml to 200 mg/ml, Preferred concentrations are those ranging from 0.5 mg/ml to 150 mg/ml and particularly preferred concentrations are those ranging from 10 to 100 mg/ml.

osseomucosal wounds = experiment: Topical treatment of osseomucosal wounds (patient cases)
From the text: Application is effected by flushing and/or by means of strip inserts impregnated with compounds of formula (I) or formula (II). They are to be used for example for postoperative infections following dentosurgical interventions (extractions). For this purpose the gel containing the compound of formula (I) or formula (II) is syringed directly into the extraction wound or onto a collagen sponge which remains in the extraction wound. The wound is closed for about half an hour by biting on a tampon. Prophylactic applications have been particularly successful after the extraction of teeth with focal infections, Liquid forms of administration suitable for flushing fistulae are those containing the compounds of formula (I) or formula (II) in concentrations of 0.005 mg/ml to 250 mg/ml. Preferred concentrations are those ranging from 0.5 to 100 mg/ml, Forms suitable for coating strips are gels containing the compounds of formula (I) or formula (II), as well as aqueous solutions or suspensions. These applications can contain the compounds of formula (I) or formula (II) in concentrations of 0.005 mg/ml to 200 mg/ml. Preferred concentrations for solutions are those ranging from 0.1 to 50 mg/ml Gelatinous forms of administration in concentrations of 25-150 mg/ml are preferred in the case of strip inserts.

dentin wounds = experiment: Prophylaxis of dentin wounds (patient cases)
From the text: For this reason, after removal of the carious regions, the compounds of formula (I) or formula (II) are applied to the prepared cavities and rubbed in. Said compounds are applied in the form of solutions, gels or suspensions to form a local depot with an antibiotic action before the reliner is placed on and/or in the fundament of the inlays, onlays, crowns or bridges. […] A further advantage is that the tubule structure is not modified or denatured here, as is frequently the case with the current procedures using dentin protecting agents and impregnating agents. The microbe-free conditions achieved in this way have a permanent beneficial effect on prosthetic procedures since dentin hypersensitivities and subsequently secondary caries are effectively avoided.
The application of the compounds of formula (I) or formula (II) can either replace or complement the disinfecting treatment with hydrogen peroxide. The compounds of formula (I) or formula (II) can be applied in dissolved form or as a gel, optionally in the presence of solubilizers to promote a deep penetration of the chemotherapeutic agents into the dentinal tubules. Gels are used in the provisional care of dentin wounds and solutions are preferably used before the definitive fixing of e.g. crowns and bridges. The solutions or gels of the chemotherapeutic agents used are applied to the prepared dentin surfaces and gently rubbed in. Residues are then removed, for example with a cotton wool swab or air jet. Inlays, onlays, crowns or bridges can then be fixed. The compounds of formula (I) or formula (II) can be used in concentrations of 0.005 mg/ml to 200 mg/ml. Preferred concentrations are those ranging from 0.5 mg/ml to 150 mg/ml and particularly preferred concentrations are those ranging from 10 to 100 mg/ml.

## COc1c(N2C[C@@H]3CCCN[C@@H]3C2)c(F)cc2c(=O)c(C(=O)O)cn(C3CC3)c12 [moxifloxacin hydrochloride, 1-cyclopropyl-6-fluoro-1,4-dihydro-8-methoxy-7-[(4aS,7aS)-octahydro-6H-pyrrolo[3,4-b]pyridin-6-yl]-4-oxo-3-quinolinecarboxylic acid]
[1]; Patient A 1.1, gel 25 mg/ml, after final filling, check-up after 3 weeks
  clinical finding at check-up: tooth vital, patient symptom-free
[1]; Patient A 1.10, teeth 16, 17, 27, 36, 37, 46 occlusal caries, pellet inserts gel 50 mg/ml, check-up after 14 days
  clinical finding at check-up: patient symptom-free, teeth vital
[1]; Patient A 1.1, tooth 24 carious defect, pellet insert gel 25 mg/ml, check-up after 4 days
  clinical finding at check-up: patient was symptom-free
[1]; Patient A 1.2, gel 50 mg/ml, after final filling, check-up after 14 days
  clinical finding at check-up: teeth vital, patient symptom-free
[1]; Patient A 1.2, teeth 11, 13 carious defects, pellet inserts gel 50 mg/ml, check-up after 1 week
  clinical finding at check-up: teeth 11 and 13 symptom-free
[1]; Patient A 1.3, gel 25 mg/ml, repetition of insert, check-up after 3 days
  clinical finding at check-up: tooth vital, patient symptom-free
[1]; Patient A 1.3, tooth 24 carious defect, pellet insert gel 25 mg/ml, check-up after one week
  clinical finding at check-up: still slight discomfort of unknown origin
[1]; Patient A 1.4, major mesial carious defect, night pain, pellet inserts gel 50 mg/ml, check-up after 7 days
  clinical finding at check-up: patient symptom-free, tooth vital
[1]; Patient A 1.5, tooth 13 weakly vital, night pain, pellet insert gel 50 mg/ml, check-up after 4 days
  clinical finding at check-up: patient symptom-free, tooth vital
[1]; Patient A 1.6, gel 50 mg/ml, repetition of insert, check-up after 7 days
  clinical finding at check-up: patient symptom-free, tooth vital
[1]; Patient A 1.6, tooth 36 reduced vitality, pellet insert gel 50 mg/ml, check-up after 6 days
  clinical finding at check-up: still slight sensitivity to heat and cold
[1]; Patient A 1.7, tooth 44 reduced vitality, pellet inserts gel 50 mg/ml, check-up after 4 days
  clinical finding at check-up: patient symptom-free
[1]; Patient A 1.8, tooth 36 reduced vitality, pellet insert gel 50 mg/ml, check-up after 3 weeks
  clinical finding at check-up: patient symptom-free, tooth vital
[1]; Patient A 1.9, tooth 27, pellet insert gel 25 mg/ml, check-up after 7 days
  clinical finding at check-up: patient symptom-free, tooth vital
Osseomucosal wounds; Patient C 1, wound care after extraction, depot of gel 50 mg/ml by gauze strip, check-up after 3 days
  clinical finding at check-up: patient symptom-free, good wound margin adaptation
Osseomucosal wounds; Patient C 2, regio 36 fistulation, incision, flushing solution 50 mg/ml + strip insert gel 50 mg/ml, check-up after 3 days
  clinical finding at check-up: patient symptom-free, good rapid healing process
Osseomucosal wounds; Patient C 3, teeth 26 and 46 apical granulomas, extraction (osteotomy), gauze with gel 50 mg/ml, check-up after 2 days
  clinical finding at check-up: patient symptom-free
Osseomucosal wounds; Patient C 4, gauze with gel 50 mg/ml, check-up after one week
  clinical finding at check-up: good wound margin adaptation, patient symptom-free
Osseomucosal wounds; Patient C 4, tooth 48 osteotomy, gauze with gel 50 mg/ml, check-up after 2 days
  clinical finding at check-up: slight wound pain, no postoperative oedema
Osseomucosal wounds; Patient C 5, after root canal filling, check-up after 3 weeks
  clinical finding at check-up: patient symptom-free
Osseomucosal wounds; Patient C 5, tooth 34 pulpitis purulenta, fistulation, flushing solution 50 mg/ml + canal insert and gauze insert gel 50 mg/ml, check-up after 3 days
  clinical finding at check-up: good healing process, patient symptom-free
Osseomucosal wounds; Patient C 6, tooth 36 wound care after extraction, depot of gel 50 mg/ml by gauze strips, check-up after 3 days
  clinical finding at check-up: patient symptom-free, good wound margin adaptation
Osseomucosal wounds; Patient C 7, tooth 22 root tip resection due to cyst, strip insert gel 50 mg/ml, check-up after 3 days
  clinical finding at check-up: patient symptom-free, good healing process
Osseomucosal wounds; Patient C 9, same combined treatment, after root canal filling, check-up after 2 weeks
  clinical finding at check-up: patient symptom-free
Osseomucosal wounds; Patient C 9, tooth 14 pulpitis purulenta, fistulation, moxifloxacin hydrochloride solution 25 mg/ml flushing + grepafloxacin gel 25 mg/ml canal insert + moxifloxacin hydrochloride gel 25 mg/ml gauze insert, check-up after 6 days
  clinical finding at check-up: patient symptom-free
Dentin wounds; Patient A 2.1, teeth 33 and 36 prepared for bridge, solution 25 mg/ml to cavity, check-up after 3 weeks
  clinical finding at check-up: patient symptom-free
Dentin wounds; Patient A 2.2, solution 50 mg/ml, after final filling, check-up after 4 weeks
  clinical finding at check-up: teeth vital, patient symptom-free
Dentin wounds; Patient A 2.2, teeth 22, 23, 24, smear with solution 50 mg/ml, check-up after 2 weeks
  clinical finding at check-up: teeth symptom-free
Dentin wounds; Patient A 2.3, teeth 14-17 cervical erosions, smear with solution 50 mg/m, check-up after 3 weeks
  clinical finding at check-up: patient symptom-free
Dentin wounds; Patient A 2.4, teeth 11, 12, 21, 22 prepared for crowns, smear with solution 25 mg/ml, check-up after 3 weeks
  clinical finding at check-up: patient symptom-free
Dentin wounds; Patient A 2.5, tooth 44, smear with solution 25 mg/ml, check-up after 9 days
  clinical finding at check-up: patient symptom-free
